From patent US20230066011A1, “PYRROLOPYRIMIDINE DERIVATIVE, AND PHARMACEUTICAL COMPOSITION FOR PREVENTING OR TREATING PROTEIN KINASE-RELATED DISEASE COMPRISING SAME AS ACTIVE INGREDIENT” (VORONOI CO., LTD., priority 2019, published 2023)

Columns and labels:
Format in all cases: biochemical
[1] = biological target: T1, human GST-CLK1 (Homo sapiens, UniProt P49759); test: GST-CLK1 enzyme inhibition, ADP-Glo kinase assay; details: ATP 10 μM, GST-CLK1 129-end
T1 construct: purified human GST-CLK1 (129-end, SignalChem) enzyme; purchased SignalChem
How it was run: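 Human GST-CLK1 (129-end, 3 ng) reacted with substrate and 10 μM ATP for 1 h at 25° C in 40 mM Tris-HCl pH 7.4, 20 mM MgCl2, 0.5 mg/mL BSA, 50 μM DTT. ADP-Glo luminescence was normalised to solvent control; IC50 (nM) from 3 data sets.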

[2] = biological target: LRRK2 (G2019S) (Homo sapiens, UniProt Q5S007, G2019S); test: LRRK2 G2019S enzyme inhibition, ADP-Glo kinase assay; design: purchased SignalChem L10-12GG; details: ATP 25 μM
How it was run: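 Purified human LRRK2 G2019S (16 ng) with 25 μM ATP and 0.2 μg substrate, 2 h at 25° C. in Tris-HCl pH 7.4, MgCl2, BSA, DTT buffer; compounds at 12 final concentrations, 50 μM down to 0.000001024 μM. ADP-Glo luminescence versus solvent control gave IC50.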

[3] = biological target: LRRK2 (Homo sapiens, UniProt Q5S007); test: LRRK2 enzyme inhibition, ADP-Glo kinase assay; design: purchased Invitrogen PR8604B; details: ATP 10 μM
How it was run: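 Purified human LRRK2 (25 ng) with 10 μM ATP and 0.2 μg substrate in 40 mM Tris-HCl pH 7.4, 20 mM MgCl2, 0.5 mg/mL BSA, 50 μM DTT, 2 h at 25° C. ADP-Glo luminescence; 12-point compound series from 50 μM final; IC50 relative to solvent control.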

[4] = biological target: T2, human GST-DYRK1A (Homo sapiens, UniProt Q13627); test: GST-DYRK1A enzyme inhibition, ADP-Glo kinase assay; details: ATP 10 μM, GST-DYRK1A full length, read-out: DYRK1 IC50
T2 construct: purified human GST-DYRK1A (full length, Thermo Scientifics) enzyme; purchased Thermo Scientifics
How it was run: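 Full-length human GST-DYRK1A (10 ng) with 10 μM ATP and specific substrate in 40 mM Tris-HCl pH 7.4, 20 mM MgCl2, 0.5 mg/mL BSA, 50 μM DTT, 1 h at 25 °C. ADP formation read by ADP-Glo luminescence relative to solvent control; IC50 from three data sets.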

Chain of LRRK2 (G2019S) (Q5S007 970-2527 G2019S limits assumed): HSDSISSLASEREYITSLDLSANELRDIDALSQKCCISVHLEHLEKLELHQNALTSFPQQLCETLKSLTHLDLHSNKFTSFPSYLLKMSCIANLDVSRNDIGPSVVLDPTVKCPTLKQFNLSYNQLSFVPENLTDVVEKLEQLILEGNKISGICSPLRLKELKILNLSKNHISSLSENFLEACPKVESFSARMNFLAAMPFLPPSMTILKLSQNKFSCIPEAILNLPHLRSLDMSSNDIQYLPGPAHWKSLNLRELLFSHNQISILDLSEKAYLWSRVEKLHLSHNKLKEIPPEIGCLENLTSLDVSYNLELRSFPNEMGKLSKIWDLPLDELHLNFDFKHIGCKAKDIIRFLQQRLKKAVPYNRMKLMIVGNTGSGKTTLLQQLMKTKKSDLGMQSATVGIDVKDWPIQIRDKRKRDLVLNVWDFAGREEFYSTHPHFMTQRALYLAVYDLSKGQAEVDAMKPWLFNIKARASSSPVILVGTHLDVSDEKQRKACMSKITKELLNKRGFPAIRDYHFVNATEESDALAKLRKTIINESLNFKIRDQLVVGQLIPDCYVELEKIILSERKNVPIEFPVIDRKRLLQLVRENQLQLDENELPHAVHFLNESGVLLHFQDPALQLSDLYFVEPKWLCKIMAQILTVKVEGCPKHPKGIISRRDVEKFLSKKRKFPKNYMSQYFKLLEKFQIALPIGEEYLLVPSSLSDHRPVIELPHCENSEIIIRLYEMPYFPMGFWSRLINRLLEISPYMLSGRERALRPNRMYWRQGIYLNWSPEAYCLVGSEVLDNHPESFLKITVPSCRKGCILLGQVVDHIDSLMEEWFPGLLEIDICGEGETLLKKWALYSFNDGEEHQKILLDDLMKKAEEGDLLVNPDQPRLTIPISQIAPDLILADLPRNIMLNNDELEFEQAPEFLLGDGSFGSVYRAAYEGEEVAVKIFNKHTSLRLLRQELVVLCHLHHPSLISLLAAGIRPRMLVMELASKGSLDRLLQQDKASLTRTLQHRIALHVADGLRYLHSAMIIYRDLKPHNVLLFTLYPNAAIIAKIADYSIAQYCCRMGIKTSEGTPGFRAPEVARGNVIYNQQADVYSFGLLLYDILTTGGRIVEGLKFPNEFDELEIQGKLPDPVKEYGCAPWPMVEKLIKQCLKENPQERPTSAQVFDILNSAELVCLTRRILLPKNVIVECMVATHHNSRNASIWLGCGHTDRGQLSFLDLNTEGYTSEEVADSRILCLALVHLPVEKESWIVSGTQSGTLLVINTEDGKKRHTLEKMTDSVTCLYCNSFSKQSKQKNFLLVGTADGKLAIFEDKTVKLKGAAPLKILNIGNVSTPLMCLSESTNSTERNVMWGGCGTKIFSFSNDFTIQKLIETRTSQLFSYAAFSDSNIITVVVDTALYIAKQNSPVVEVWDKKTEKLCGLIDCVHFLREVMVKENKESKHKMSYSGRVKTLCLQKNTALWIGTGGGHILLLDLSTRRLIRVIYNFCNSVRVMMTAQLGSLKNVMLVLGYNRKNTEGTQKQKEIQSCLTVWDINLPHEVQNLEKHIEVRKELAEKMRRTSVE
Chain of LRRK2 (Q5S007 970-2527 limits assumed): as the sequence (Q5S007 970-2527 G2019S limits assumed) above, with S1050G counted along it
T1 sequence (P49759 129-484 limits assumed): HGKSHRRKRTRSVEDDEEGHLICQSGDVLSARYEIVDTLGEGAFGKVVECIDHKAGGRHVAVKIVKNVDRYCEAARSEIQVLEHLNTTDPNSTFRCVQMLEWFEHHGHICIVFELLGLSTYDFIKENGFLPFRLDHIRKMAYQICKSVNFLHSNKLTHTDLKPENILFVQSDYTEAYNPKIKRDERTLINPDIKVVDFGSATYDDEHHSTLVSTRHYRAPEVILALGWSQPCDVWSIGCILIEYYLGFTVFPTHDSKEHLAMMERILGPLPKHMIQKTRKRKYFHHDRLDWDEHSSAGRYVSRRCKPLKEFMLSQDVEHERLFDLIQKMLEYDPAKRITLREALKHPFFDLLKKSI

| Structure (SMILES) | IC50 [1] | IC50 [2] | IC50 [3] | IC50 [4] |
| --- | --- | --- | --- | --- |
| CNc1nc(Nc2ccc(S(C)(=O)=O)cc2OC)nc2[nH]cc(C#N)c12 [Example 257, 2-((2-methoxy-4-(methylsulfonyl)phenyl)amino)-4-(methylamino)-7H-pyrrolo[2,3-d]pyrimidine-5-carbonitrile] | 301 to 1000 nM | < 100 nM | < 100 nM | 301 to 1000 nM |
| CCCNc1nc(Nc2ccc(S(C)(=O)=O)cc2OC)nc2[nH]cc(C#N)c12 [Example 99, 2-((2-methoxy-4-(methylsulfonyl)phenyl)amino)-4-(propylamino)-7H-pyrrolo[2,3-d]pyrimidine-5-carbonitrile] | 301 to 1000 nM | 101 to 300 nM | < 100 nM | 301 to 1000 nM |
| COc1cc(S(=O)(=O)N2CCC(N3CCOCC3)CC2)ccc1Nc1nc(NCC(C)C)c2c(C(F)(F)F)c[nH]c2n1 [Example 179, N^4-isobutyl-N^2-(2-methoxy-4-((4-morpholinopiperidin-1-yl)sulfonyl)phenyl)-5-(trifluoromethyl)-7H-pyrrolo[2,3-d]pyrimidine-2,4-diamine] | 301 to 1000 nM | 101 to 300 nM | < 100 nM | 301 to 1000 nM |
| COc1cc(S(=O)(=O)N2CCC(N3CCOCC3)CC2)ccc1Nc1nc(NCCS(C)(=O)=O)c2c(C#N)c[nH]c2n1 [Example 96, 2-((2-methoxy-4-((4-morpholinopiperidin-1-yl)sulfonyl)phenyl)amino)-4-((2-(methylsulfonyl)ethyl)amino)-7H-pyrrolo[2,3-d]pyrimidine-5-carbonitrile] | < 100 nM | < 100 nM | < 100 nM | 301 to 1000 nM |
| N#Cc1c[nH]c2nc(Nc3ccc(C(=O)N4CCC(N5CCOCC5)CC4)c4c3OCCO4)nc(NC3CCCCC3)c12 [Example 251, 4-(cyclohexylamino)-2-((8-(4-morpholinopiperidine-1-carbonyl)-2,3-dihydrobenzo[b][1,4]dioxin-5-yl)amino)-7H-pyrrolo[2,3-d]pyrimidine-5-carbonitrile] | 301 to 1000 nM | < 100 nM | < 100 nM | 301 to 1000 nM |
| COc1cc(S(C)(=O)=O)ccc1Nc1nc(NC2CCC2)c2c(C(F)(F)F)c[nH]c2n1 [Example 184, N^4-cyclobutyl-N^2-(2-methoxy-4-(methylsulfonyl)phenyl)-5-(trifluoromethyl)-7H-pyrrolo[2,3-d]pyrimidine-2,4-diamine] | 101 to 300 nM | 101 to 300 nM | < 100 nM | 301 to 1000 nM |
| CCNc1nc(Nc2ccc(S(C)(=O)=O)cc2OC)nc2[nH]cc(C(F)(F)F)c12 [Example 159, N^4-ethyl-N^2-(2-methoxy-4-(methylsulfonyl)phenyl)-5-(trifluoromethyl)-7H-pyrrolo[2,3-d]pyrimidine-2,4-diamine] | 301 to 1000 nM | 301 to 1000 nM | < 100 nM | 301 to 1000 nM |
| COCCNc1nc(Nc2ccc(S(C)(=O)=O)cc2OC)nc2[nH]cc(C(F)(F)F)c12 [Example 171, N^2-(2-methoxy-4-(methylsulfonyl)phenyl)-N^4-(2-methoxyethyl)-5-(trifluoromethyl)-7H-pyrrolo[2,3-d]pyrimidine-2,4-diamine] | 301 to 1000 nM | < 100 nM | < 100 nM | 301 to 1000 nM |
| COc1cc(S(C)(=O)=O)ccc1Nc1nc(NC2CC2)c2c(C(F)(F)F)c[nH]c2n1 [Example 376, N^4-cyclopropyl-N^2-(2-methoxy-4-(methylsulfonyl)phenyl)-5-(trifluoromethyl)-7H-pyrrolo[2,3-d]pyrimidine-2,4-diamine] | 101 to 300 nM | < 100 nM | < 100 nM | 301 to 1000 nM |
| COc1cc(S(C)(=O)=O)ccc1Nc1nc(NC(C)C)c2c(C#N)c[nH]c2n1 [Example 101, 4-(isopropylamino)-2-((2-methoxy-4-(methylsulfonyl)phenyl)amino)-7H-pyrrolo[2,3-d]pyrimidine-5-carbonitrile] | 301 to 1000 nM | < 100 nM | < 100 nM | 301 to 1000 nM |
| COCCNc1nc(Nc2ccc(S(=O)(=O)N3CCOCC3)cc2OC)nc2[nH]ccc12 [Example 19, N^2-(2-methoxy-4-(morpholinosulfonyl)phenyl)-N^4-(2-methoxyethyl)-7H-pyrrolo[2,3-d]pyrimidine-2,4-diamine] | 301 to 1000 nM | < 100 nM | < 100 nM | 301 to 1000 nM |
| COCC(C)(C)Nc1nc(Nc2ccc(S(C)(=O)=O)cc2OC)nc2[nH]cc(C(F)(F)F)c12 [Example 177, N^4-(1-methoxy-2-methylpropan-2-yl)-N^2-(2-methoxy-4-(methylsulfonyl)phenyl)-5-(trifluoromethyl)-7H-pyrrolo[2,3-d]pyrimidine-2,4-diamine] | 301 to 1000 nM | 301 to 1000 nM | 301 to 1000 nM | 301 to 1000 nM |
| CNc1nc(Nc2ccc(S(C)(=O)=O)cc2OC)nc2[nH]cc(C(F)(F)F)c12 [Example 163, N^2-(2-methoxy-4-(methylsulfonyl)phenyl)-N^4-methyl-5-(trifluoromethyl)-7H-pyrrolo[2,3-d]pyrimidine-2,4-diamine] | 301 to 1000 nM | < 100 nM | < 100 nM | 101 to 300 nM |

Results, then the compound that gave them:

| IC50 [1] | IC50 [2] | IC50 [3] | IC50 [4] | Structure (SMILES) |
| --- | --- | --- | --- | --- |
| 301 to 1000 nM | < 100 nM | < 100 nM | 301 to 1000 nM | N#Cc1c[nH]c2nc(Nc3ccc(C(=O)N4CCOCC4)c4c3OCCO4)nc(NCC3CC3)c12 [Example 130, 4-((cyclopropylmethyl)amino)-2-((8-(morpholine-4-carbonyl)-2,3-dihydrobenzo[b][1,4]dioxin-5-yl)amino)-7H-pyrrolo[2,3-d]pyrimidine-5-carbonitrile] |
| 301 to 1000 nM | < 100 nM | < 100 nM | 301 to 1000 nM | CC(C)Nc1nc(Nc2ccc(C(=O)N3CCOCC3)c3c2OCCO3)nc2[nH]cc(C(F)(F)F)c12 [Example 167, (8-((4-(isopropylamino)-5-(trifluoromethyl)-7H-pyrrolo[2,3-d]pyrimidin-2-yl)amino)-2,3-dihydrobenzo[b][1,4]dioxin-5-yl)(morpholino)methanone] |
| < 100 nM | < 100 nM | < 100 nM | 101 to 300 nM | CCNc1nc(Nc2ccc(C(=O)N3CCOCC3)c3c2OCCO3)nc2[nH]cc(C(F)(F)F)c12 [Example 156, (8-((4-(ethylamino)-5-(trifluoromethyl)-7H-pyrrolo[2,3-d]pyrimidin-2-yl)amino)-2,3-dihydrobenzo[b][1,4]dioxin-5-yl)(morpholino)methanone 2,2,2-trifluoroacetate] |
| < 100 nM | < 100 nM | < 100 nM | 301 to 1000 nM | CCNc1nc(Nc2ccc(C(=O)N3CCOCC3)c3c2OCCO3)nc2[nH]cc(C#N)c12 [Example 119, 4-(ethylamino)-2-((8-(morpholine-4-carbonyl)-2,3-dihydrobenzo[b][1,4]dioxin-5-yl)amino)-7H-pyrrolo[2,3-d]pyrimidine-5-carbonitrile] |
| 301 to 1000 nM | < 100 nM | < 100 nM | 301 to 1000 nM | CCNc1nc(Nc2ccc(C(=O)N3CCOCC3)c3c2OCCO3)nc2[nH]ccc12 [Example 58, (8-((4-(ethylamino)-7H-pyrrolo[2,3-d]pyrimidin-2-yl)amino)-2,3-dihydrobenzo[b][1,4]dioxin-5-yl)(morpholino)methanone 2,2,2-trifluoroacetate] |
| 101 to 300 nM | < 100 nM | < 100 nM | 101 to 300 nM | N#Cc1c[nH]c2nc(Nc3ccc(C(=O)N4CCOCC4)c4c3OCCO4)nc(NC3CC3)c12 [Example 124, 4-(cyclopropylamino)-2-((8-(morpholine-4-carbonyl)-2,3-dihydrobenzo[b][1,4]dioxin-5-yl)amino)-7H-pyrrolo[2,3-d]pyrimidine-5-carbonitrile] |
| 301 to 1000 nM | < 100 nM | < 100 nM | 301 to 1000 nM | O=C(c1ccc(Nc2nc(NC3CC3)c3c(C(F)(F)F)c[nH]c3n2)c2c1OCCO2)N1CCOCC1 [Example 182, (8-((4-(cyclopropylamino)-5-(trifluoromethyl)-7H-pyrrolo[2,3-d]pyrimidin-2-yl)amino)-2,3-dihydrobenzo[b][1,4]dioxin-5-yl)(morpholino)methanone] |
| 301 to 1000 nM | 301 to 1000 nM | 301 to 1000 nM | 301 to 1000 nM | N#Cc1c[nH]c2nc(Nc3ccc(C(=O)N4CCOCC4)c4c3OCCO4)nc(NC3COC3)c12 [Example 135, 2-((8-(morpholine-4-carbonyl)-2,3-dihydrobenzo[b][1,4]dioxin-5-yl)amino)-4-(oxetan-3-ylamino)-7H-pyrrolo[2,3-d]pyrimdine-5-carbonitrile] |
